# In patent US7968582B2, “5(S)-substituted pyrazoline compounds, their preparation and use as medicaments” (Laborotorios Del Dr. Esteve, S.A., priority 2005, dated 2011):
# How the values were obtained:
# [1] = molecular target: T1, recombinant human cannabinoid 1 receptor (CB1) (Homo sapiens, UniProt P21554); test: In vitro determination of antagonism to CB1-receptor, [35S]GTPγS binding assay; type: biochemical; settings: compound 1 μM with agonist WIN 55,212-2 (3 nM to 3 μM); 100% = difference between maximal WIN 55,212-2 effect alone and plus Rimonabant (1 μM); CHO-hCB1 membranes
# T1 construct: expressed in transfected cells; membrane preparation
# Method: VI. In vitro Determination of Antagonism to CB1-Receptor
# In order to obtain cells, culture flasks were washed twice with phosphate buffered saline and scraped. Then, cells were collected by centrifugation (200×g, 10 min) and stored dry at −80° C.
# [^35S]GTPγS Binding Assay:
# The reaction was performed in 96-well plates. […] Filter plates were dried and 30 μl of scintillation liquid was added, Radioactivity was determined using a Wallac Microbeta Trilux. Each experiment was performed at least in duplicate.
# The average of basal [^35S]GTPγS binding was subtracted from all binding data.
# [2] = Effect of continued administration on body weight in rats; type: in vivo
# Method: V. Determination of the Effect of Continued Administration of the Inventive Compounds on Body Weight in Rats
# The weight of the animals was measured for 36 days, and the data grouped into 3 periods for analysis: Period 1, days 1-8 (period for adaptation of the animals to the environmental conditions: one week without treatment plus first day of treatment); Period 2. days 9-22 (treatment period: two weeks); Period 3, days 23-36 (escape treatment period: two weeks). The administration of the drugs started on day 8, immediately after the animal was weighted, and finished on day 21. The treatment period ranges between one day after first administration and one day after last administration. The drugs were administered i.p. once daily. For comparative purposes, absolute weights were transformed into relative percentages (each weight was divided by that of day 8 and multiplied by 100). […] All results are expressed as mean±S.E.M.
# The dependence of body-weight (expressed as a percentage relative to day 8) on time (number of lays after inclusion in the study) and treatment was assessed by a two-way (time, treatment) analysis of variance (ANOVA) with repeated measures on the time factor. […] The differences between pairs of curves (treatments) were analyzed using appropriate contrasts within the ANOVA test. […]
# [3] = Chronic administration to animals made obese by a simplified cafeteria diet; type: in vivo, rats
# T1 sequence (P21554 whole entry): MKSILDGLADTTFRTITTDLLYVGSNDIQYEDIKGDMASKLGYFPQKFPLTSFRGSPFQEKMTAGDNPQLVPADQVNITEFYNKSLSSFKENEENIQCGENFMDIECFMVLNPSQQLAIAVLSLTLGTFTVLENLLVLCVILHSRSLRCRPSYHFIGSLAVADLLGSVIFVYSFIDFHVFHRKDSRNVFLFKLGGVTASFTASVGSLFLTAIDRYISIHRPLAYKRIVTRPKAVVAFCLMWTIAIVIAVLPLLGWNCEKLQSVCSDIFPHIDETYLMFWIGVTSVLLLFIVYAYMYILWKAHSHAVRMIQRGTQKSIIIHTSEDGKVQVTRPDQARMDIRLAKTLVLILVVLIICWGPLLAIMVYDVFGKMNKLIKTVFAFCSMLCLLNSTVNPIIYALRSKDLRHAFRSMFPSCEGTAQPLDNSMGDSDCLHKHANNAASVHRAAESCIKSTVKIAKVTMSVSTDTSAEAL
SMILES,Antagonism [%] [1] [%],"body weight during treatment period ([2]; 10 mg/kg i.p. once daily, days 9-22, FIG. 1)","body weight in post-treatment period ([2]; after 10 mg/kg i.p. once daily, days 23-36, FIG. 1)","body weight versus vehicle-treated controls ([3]; after 28 days of drug treatment, rats)","body weight ([3]; chronic administration, animals made obese by cafeteria diet (high-fat diet, chocolate, ground peanuts))","effect on plasma lipids (triacylglycerol and glycerol) ([3]; following chronic administration, seems independent of weight loss)"
"O=C(NN1CCCCC1)C1=NN(c2ccc(Cl)cc2Cl)[C@H](c2ccc(Cl)cc2)C1 [A, (S)-N-piperidinyl-5-(4-chlorophenyl)-1-(2,4-dichlorophenyl)-4,5-dihydro-1H-pyrazole-3-carboxamide]",43,significant action during the treatment period,relatively fast recovery of weight,lower than those of the vehicle-treated controls,significantly decreased body weight,positive effect on plasma lipids
"Cl.O=C(NN1CCCCC1)C1=NN(c2ccc(Cl)cc2Cl)[C@H](c2ccc(Cl)cc2)C1 [A-Hydrochloride, Hydrochloride salt of (S)-N-piperidinyl-5-(4-chlorophenyl)-1-(2,4-dichlorophenyl)-4,5-dihydro-1H-pyrazole-3-carboxamide]",−7,,,,,
